Consider seven compounds from publication PMC12356538, “Targeting the SARS-CoV‑2 RNA Translation Initiation Element SL1 by Molecules of Low Molecular Weight” (Journal of the American Chemical Society, 2025).

The target of one experiment is SL1 wt RNA. Put plainly: NMR-based KD estimation, ligand-detected 1D-1H titration. Format: binding, SARS-CoV-2. The note with it: Suppl. Table 7; ligand constant at 100, SL1 wt RNA concentration 0-200; read-out: KDest.
Experiment [1] deals with SARS-CoV-2 SL1 RNA (SL1 wt). Format: binding. Particulars: for wLOGSY factor / T2 reduction [%] / CSP [Hz]: 10 μM SL1 wt, 200 μM ligand; for wLOGSY factor / T2 reduction [%]: pH 6.2; for T2 reduction [%]: CPMG 100 vs 5 ms; for Rank: FBS ranking from summed ranks of CSP, wLOGSY and T2 results; for Rank / scoring in the FBS ranking compared with lead A: SL1 wt; for CSP [Hz]: ligand 1H CSP, [RNA]:[ligand] 1:20, pH 6.2.

A further experiment has as its system SL1 Δbulge RNA. Format: binding, SARS-CoV-2.

Each structure is given as a SMILES string.

Turning to `CCN(CCN[C@@H]1CCCN(CC(=O)Nc2nc3ccc(OC)cc3s2)C1)c1cccc(O)c1` [A.51], at SL1 wt RNA, the Kd is 740 µM. Further, in experiment [1], the wLOGSY factor stood at 0.00, the “T2 reduction [%]” value is recorded as 88.75%, the Rank is reported as 25 and the “CSP [Hz]” value is 19.56 Hz. For the same compound, in the experiment with SL1 Δbulge RNA, the “CSP [Hz]” value is 4.44 Hz, the Rank was 10, the “T2 reduction [%]” value is on record as 42.57% and the wLOGSY factor was 0.00.

On to `COc1cc(OC)c2nc(NC(=O)CN3CCC[C@H](N)C3)sc2c1` [A.54], for which the Kd at SL1 wt RNA is 109 µM. Further, in experiment [1], the wLOGSY factor was 0.00, the “T2 reduction [%]” value amounted to 100.00%, the Rank stood at 4 and the “CSP [Hz]” value is 34.62 Hz. Besides, in the experiment with SL1 Δbulge RNA, the “CSP [Hz]” value came to 3.60 Hz, the Rank amounted to 5, the “T2 reduction [%]” value was found to be 88.68% and the wLOGSY factor is recorded as 0.00.

As for `COc1cc(OC)c2nc(NC(=O)CN3CCC[C@@H](N)C3)sc2c1` [A.55], the Kd at SL1 wt RNA was 81.1 µM. In experiment [1], the wLOGSY factor is recorded as 0.00, the “T2 reduction [%]” value is 100.00%, the Rank was determined as 5 and the “CSP [Hz]” value stood at 34.05 Hz. The “FBS result (CSP, wLOGSY, T2 reduction) in words” value in the experiment with SL1 Δbulge RNA is “no effects”.

For `COc1cc(OC)c2nc(NC(=O)CN3CCN(C)CC3)sc2c1` [A.56], the Kd at SL1 wt RNA is 75.3 µM. In experiment [1], the wLOGSY factor amounted to 0.00, the “T2 reduction [%]” value is 100.00%, the Rank was 7 and the “CSP [Hz]” value is given as 31.95 Hz. The “FBS result (CSP, wLOGSY, T2 reduction) in words” value in the experiment with SL1 Δbulge RNA was “no effects”.

Take `COc1cc(OC)c2nc(NC(=O)CN3CCNCC3)sc2c1` [A.57]: the Kd at SL1 wt RNA was 83.7 µM. In experiment [1], the wLOGSY factor is on record as 0.00, the “T2 reduction [%]” value is 100.00%, the Rank is given as 6 and the “CSP [Hz]” value is 32.79 Hz. In the experiment with SL1 Δbulge RNA, the “CSP [Hz]” value turned out to be 4.92 Hz, the Rank was 8, the “T2 reduction [%]” value is recorded as 47.32% and the wLOGSY factor was 1.07.

On to `COc1ccc(-c2nnc(NC(=O)CN3CCC[C@H](N)C3)s2)cc1OC` [A.58], for which, at SL1 wt RNA, the Kd is 77.5 µM. In experiment [1], the wLOGSY factor is reported as 0.00, the “T2 reduction [%]” value was 96.61%, the Rank is 10 and the “scoring in the FBS ranking compared with lead A” value is recorded as roughly 4 fold. The “CSP [Hz]” value in experiment [1] is 39.18 Hz. Further, in the experiment with SL1 Δbulge RNA, the “CSP [Hz]” value was 9.24 Hz, the Rank stood at 2, the “T2 reduction [%]” value turned out to be 73.56% and the wLOGSY factor is reported as 0.00.

Take `COc1ccc(-c2nnc(NC(=O)CN3CCC[C@@H](N)C3)s2)cc1OC` [A.59]: the Kd at SL1 wt RNA is 90.7 µM. In addition, in experiment [1], the wLOGSY factor is given as 0.00, the “T2 reduction [%]” value came out at 98.00%, the Rank came to 10 and the “scoring in the FBS ranking compared with lead A” value is given as roughly 4 fold. Also, in experiment [1], the “CSP [Hz]” value is recorded as 38.70 Hz. Besides, in the experiment with SL1 Δbulge RNA, the “CSP [Hz]” value came out at 9.18 Hz, the Rank is 4, the “T2 reduction [%]” value was found to be 65.47% and the wLOGSY factor was 0.00.
